Experimental data published in publication PMC8151276, “An Integrated Approach toward NanoBRET Tracers for Analysis of GPCR Ligand Engagement” (Molecules, 2021).

Molecular target: T1, P2RY12 (Homo sapiens, UniProt Q9H244)
T1 construct: purchased Promega (in-house HiBiT-GPCR construct library, NanoBRET)
Assay: NanoBRET screen HiBiT-P2RY12 in HEK293
Type: binding
Procedure: Each tracer candidate was screened across the entire library of HiBiT-GPCR constructs using NanoBRET as the detection modality. As depicted in Figure 4A, the specificity of interactions was evaluated through decrease in BRET due to competitive displacement of a bound tracer by excess parental compound. Each tracer was analyzed for binding to each HiBiT-GPCR fusion in the absence and in the presence of competing parental compound. Briefly, HEK293 cells were transfected with HiBiT-GPCR constructs diluted into promoterless DNA to reduce expression and maximize translocation to the cell surface. Each tracer candidate was then screened at concentrations of 1 μM and 0.1 μM across cells expressing these fusions. Cells were treated for 1.5 h with tracer either alone or in the presence of 20 μM competing parental compound (i.e., control). BRET was measured upon addition of purified LgBiT and subsequent complementation with HiBiT genetically fused to a GPCR. The specificity of interactions was assessed through a decrease in BRET signal due to competitive displacement of the bound tracer. To further gauge the robustness of these interactions, the fold response over the control (i.e., BRETtracer/BRETcontrol) was calculated. We chose a 1.5-fold response, which translates to ≥7-fold signal over noise as the minimal threshold required to score an interaction as positive. […]. Below we highlight the screening results obtained for our exemplary fluorescent tracers based on Clozapine, Amitriptyline and AZD1283.
HiBiT-GPCR DNA constructs were diluted in 10 mM Tris pH 8 to a final concentration of 0.01 μg/μL, arrayed in 96-well plates and stored at −20 °C. For transfection, HEK293 cells were suspended in Opti-MEM (without phenol red) supplemented with 2% fetal bovine serum (Seradigm) and 100 units/mL penicillin–streptomycin (Gibco) at a final concentration of 220,000 cells/mL and dispensed into white 96-well plates at 90 μL/well. Subsequent transfections and screens were carried using an Agilent Bravo Automated Liquid Handling Platform. First, the 96-well HiBiT DNA arrays were diluted 25-fold in Opti-MEM (without serum or phenol red) to a final concentration of 0.0004 μg/μL and 20 μL of the diluted DNAs were transferred into new 96-well plates. Next, promoterless carrier DNA (1 μg/μL) was diluted 25-fold (0.04 μg/μL) and then dispensed into the diluted arrays at 20 μL/well. Following brief mixing, Viafect transfection reagent (Promega) diluted 16-fold into Opti-MEM was dispensed into the plates at 40 μL/well. After mixing by pipetting, plates were incubated for 10 min on the pipetting station deck. The DNA-transfection reagent complexes were then added to plates containing cells. To facilitate the screen, 10 μL of DNA-transfection reagent complexes were added in duplicates to the top 4 and bottom 4 rows, resulting in two identical 48-well arrays per plate. Plates with transfected cells were incubated for 18–20 h at 37 °C/5% CO2. A screen of each tracer across the entire library using two different concentrations requires duplicate plates of transfected cells. Depending on the number of tracers being screened, transfections can be scaled up using the same ratios. The next day, for each tracer, four 20× screening solutions in tracer dilution buffer (Promega) were prepared: two duplicates at final concentration of 20 μM and two duplicates at a final concentration of 2 μM. A competing unmodified compound was added to one of each duplicate at a final concentration of 400 μM. The four resulting solutions were diluted 4-fold in Opti-MEM without serum or phenol red to generate 5× solutions (5 µM and 0.5 µM tracer +/− 100 μM competing compound). To screen the library, a BioTek MultiFlo FX liquid dispenser was used to dispense 22.5 µL of tracer solution to the top 4 rows and 22.5 µL tracer + competing compound solution to the 4 bottom rows. Plates were briefly mixed on an orbital shaker and incubated for 1.5 h at room temperature. […]

T1 sequence (Q9H244 whole entry, one chain of several): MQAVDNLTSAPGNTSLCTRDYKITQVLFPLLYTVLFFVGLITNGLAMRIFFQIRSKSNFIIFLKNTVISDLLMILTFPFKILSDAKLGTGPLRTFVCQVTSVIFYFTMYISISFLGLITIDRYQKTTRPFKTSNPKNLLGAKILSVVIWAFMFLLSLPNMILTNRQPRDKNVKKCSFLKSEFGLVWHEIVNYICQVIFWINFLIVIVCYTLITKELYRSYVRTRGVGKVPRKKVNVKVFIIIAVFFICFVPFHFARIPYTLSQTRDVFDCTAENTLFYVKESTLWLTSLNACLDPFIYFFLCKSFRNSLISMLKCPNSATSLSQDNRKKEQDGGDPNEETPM

Row | SMILES | NanoBRET Fold Response (P2RY12, tracer 0.1μM) | NanoBRET Fold Response (P2RY12, tracer 1μM) | further results
1 | CCOC(=O)c1cc(C#N)c(N2CCC(C(=O)NS(=O)(=O)Cc3ccccc3/C=C/C(=O)NCCNC(=O)CCc3ccc4n3[B-](F)(F)[N+]3=C(c5ccc[nH]5)C=CC3=C4)CC2)nc1C [AZD1283-1-NB590] |  |  | NanoBRET Fold Response (P2RY12, 0.1μM): 3.11; NanoBRET Fold Response (P2RY12, 1μM): 2.18
2 | N#CN=C(NCCCOc1cccc(CN2CCCCC2)c1)NCCNC(=O)CCOCCOCCOCCOCCNC(=O)CCc1ccc2n1[B-](F)(F)[N+]1=C(c3ccc[nH]3)C=CC1=C2 [Aminopotentidine-2-NB590] | 0.94 | 0.99 | 
3 | CN(C)CCC=C1c2ccccc2CCc2ccc(C(=O)NCCNC(=O)CCOCCOCCOCCOCCNC(=O)CCc3ccc4n3[B-](F)(F)[N+]3=C(c5ccc[nH]5)C=CC3=C4)cc21 [Amitriptyline-a-2-NB590] |  |  | NanoBRET Fold Response (tracer at 0.1μM): 1.14; NanoBRET Fold Response (tracer at 1μM): 0.93
4 | CN(C)CCC=C1c2ccccc2CCc2ccc(C(=O)NCCNC(=O)CCOCCOCCOCCOCCNC(=O)CCc3ccc4n3[B-](F)(F)[N+]3=C(c5ccc[nH]5)C=CC3=C4)cc21 [Amitriptyline-b-2-NB590] |  |  | NanoBRET Fold Response (tracer at 0.1μM, listed as amitriptyline-b-2-NB590): 0.96
5 | CN(CCC=C1c2ccccc2CCc2ccccc21)C(=O)CCOCCOCCOCCOCCNC(=O)CCc1ccc2n1[B-](F)(F)[N+]1=C(c3ccc[nH]3)C=CC1=C2 [Amitriptyline-e-2-NB590] |  |  | NanoBRET Fold Response (tracer at 1μM): 1.05
6 | COc1ccc2c(n1)c(CCNC(C)=O)cn2CCNC(=O)CCc1ccc2n1[B-](F)(F)[N+]1=C(c3ccc[nH]3)C=CC1=C2 [Azamelatonin-1-NB590] |  |  | NanoBRET Fold Response (0.1μM tracer): 1.02; NanoBRET Fold Response (1μM tracer): 1.02
7 | COc1ccc2[nH]c(-c3ccc(CNC(=O)CCOCCOCCOCCOCCNC(=O)CCc4ccc5n4[B-](F)(F)[N+]4=C(c6ccc[nH]6)C=CC4=C5)cc3)c(CCNC(C)=O)c2n1 [AzomelatoninICO9-2-NB590] |  |  | NanoBRET Fold Response (0.1μM tracer): 1.15; NanoBRET Fold Response (1μM tracer): 1.05
8 | O=C(CCOCCOCCOCCOCCNC(=O)CCc1ccc2n1[B-](F)(F)[N+]1=C(c3ccc[nH]3)C=CC1=C2)NCCCN1CCN(C2=Nc3cc(Cl)ccc3Nc3ccccc32)CC1 [Clozapine-a-2-NB590] |  |  | NanoBRET Fold Response (P2RY12, 0.1μM tracer): 1.00; NanoBRET Fold Response (P2RY12, 1μM tracer): 0.94
9 | CN1CCN(C2=Nc3cc(Cl)ccc3Nc3ccc(CNC(=O)CCOCCOCCOCCOCCNC(=O)CCc4ccc5n4[B-](F)(F)[N+]4=C(c6ccc[nH]6)C=CC4=C5)cc32)CC1 [Clozapine-b-2-NB590] |  |  | NanoBRET Fold Response (P2RY12, 0.1μM tracer): 1.00; NanoBRET Fold Response (P2RY12, 1μM tracer): 0.97
10 | CN1CCN(C2=Nc3cc(Cl)ccc3N(CC(=O)NCCOCCOCCOCCOCCNC(=O)CCc3ccc4n3[B-](F)(F)[N+]3=C(c5ccc[nH]5)C=CC3=C4)c3ccccc32)CC1 [Clozapine-c-2-NB590] |  |  | NanoBRET Fold Response (P2RY12, 0.1μM tracer): 0.99; NanoBRET Fold Response (P2RY12, 1μM tracer): 0.95
11 | O=C(CCOCCOCCOCCOCCNC(=O)CCc1ccc2n1[B-](F)(F)[N+]1=C(c3ccc[nH]3)C=CC1=C2)NCCCN1CCN(C2=Nc3ccccc3Oc3ccc(Cl)cc32)CC1 [Loxapine-a-2-NB590] | 0.99 | 0.84 | 
12 | COc1ccccc1N1CCN(CCCCN2C(=O)c3ccc(CNC(=O)CCOCCNC(=O)c4ccc(CNC(=O)CCc5ccc6n5[B-](F)(F)[N+]5=C(c7ccc[nH]7)C=CC5=C6)cc4)cc3C2=O)CC1 [NAN-190-3-NB590] | 1.12 | 1.10 | 
13 | O=C(CCc1ccc2n1[B-](F)(F)[N+]1=C(c3ccc[nH]3)C=CC1=C2)NCc1ccc(C(=O)NCCOCCC(=O)N[C@@H]2CC[C@@]3(O)[C@H]4Cc5ccc(O)c6c5[C@@]3(CCN4CC3CC3)[C@H]2O6)cc1 [Naltrexone-3-NB590] | 1.30 | 0.88 | 
14 | Cc1cc2c(s1)Nc1ccccc1N=C2N1CCN(CCCNC(=O)CCOCCOCCOCCOCCNC(=O)CCc2ccc3n2[B-](F)(F)[N+]2=C(c4ccc[nH]4)C=CC2=C3)CC1 [Olanzapine-a-2-NB590] | 0.98 | 0.97 | 
15 | O=C(CCc1ccc2n1[B-](F)(F)[N+]1=C(c3ccc[nH]3)C=CC1=C2)NCc1ccc(C(=O)NCCOCCOCCNCC(O)COc2cccc3ccccc23)cc1 (centres unmarked) [Propranolol-3-NB590] |  |  | NanoBRET Fold Response (P2RY12, 0.1μM): 1.02; NanoBRET Fold Response (P2RY12, 1μM): 0.94
16 | O=C(CCc1ccc2n1[B-](F)(F)[N+]1=C(c3ccc[nH]3)C=CC1=C2)NCCOCCOCCNC(=O)OCCOCCN1CCN(C2=Nc3ccccc3Sc3ccccc32)CC1 [Quetiapine-a-2-NB590] | 0.99 | 0.92 | 
17 | Cc1nc2n(c(=O)c1CCN1CCC(c3noc4cc(F)ccc34)CC1)CCCC2OC(=O)NCCOCCOCCOCCOCCNC(=O)CCc1ccc2n1[B-](F)(F)[N+]1=C(c3ccc[nH]3)C=CC1=C2 (centres unmarked) [Risperidone-2-NB590] | 1.05 | 0.95 | 
18 | CC(C)N(CC[C@H](c1ccccc1)c1cc(CCNC(=O)CCOCCOCCOCCOCCNC(=O)CCc2ccc3n2[B-](F)(F)[N+]2=C(c4ccc[nH]4)C=CC2=C3)ccc1O)C(C)C [Tolterodine-2-NB590] | 0.93 | 0.95 | 
19 | CC(C)N(CC[C@H](c1ccccc1)c1cc(CCNC(=O)c2ccc(CNC(=O)CCc3ccc4n3[B-](F)(F)[N+]3=C(c5ccc[nH]5)C=CC3=C4)cc2)ccc1O)C(C)C [Tolterodine-BZ-NB590] | 1.08 | 0.91 | 
20 | CCCn1c(=O)c2[nH]c(-c3ccc(OCC(=O)NCCNC(=O)CCOCCNC(=O)c4ccc(CNC(=O)CCc5ccc6n5[B-](F)(F)[N+]5=C(c7ccc[nH]7)C=CC5=C6)cc4)cc3)nc2n(CCC)c1=O [XAC-3-NB590] | 0.91 | 1.04 | 
